# Measurements as given in ChEMBL document CHEMBL1914382, “Fragment based discovery of a novel and selective PI3 kinase inhibitor” (Bioorg Med Chem Lett, 2011).
# Tests used:
# [1] = Metabolic stability in human liver microsomes; type: ADME, Microsome; settings: read-out: Stability
# [2] = Permeability of the compound by PAMPA; type: ADME; settings: read-out: permeability
# [3] = Metabolic stability in rat liver microsomes; type: ADME, Microsome; settings: read-out: Stability
smiles,measurement,setting,value
CC(=O)Nc1cn2cc(/C=C3\SC(=O)NC3=O)ccc2n1,microsomal CLint,[1],10 µL/min/mg
same,Papp,[2],13.6 ×10⁻⁶ cm/s
same,microsomal CLint,[3],15 µL/min/mg
